Where a name gives a salt, the structure may show the parent alone. Read-outs that look alike come from different tables or passages of the source.
Columns and labels:
RelA = RelA (Homo sapiens, UniProt Q04206); test: DSE-FRET RelA–DNA binding inhibition; format: biochemical; parameters: Kinetic assay RelA Inhibition % ΔRFU(60 min-0 min) / RelA HTS % Inhibition / RelA Retest % Inhibition Run1 / RelA Retest % Inhibition Run2 / RelA Retest % Inhibition Avg. / Kinetic assay RelA % Inhibition ΔRFU(60 min-0 min): dose or concentration left out as unconfirmed
Sequence of RelA (Q04206 19-306 limits assumed): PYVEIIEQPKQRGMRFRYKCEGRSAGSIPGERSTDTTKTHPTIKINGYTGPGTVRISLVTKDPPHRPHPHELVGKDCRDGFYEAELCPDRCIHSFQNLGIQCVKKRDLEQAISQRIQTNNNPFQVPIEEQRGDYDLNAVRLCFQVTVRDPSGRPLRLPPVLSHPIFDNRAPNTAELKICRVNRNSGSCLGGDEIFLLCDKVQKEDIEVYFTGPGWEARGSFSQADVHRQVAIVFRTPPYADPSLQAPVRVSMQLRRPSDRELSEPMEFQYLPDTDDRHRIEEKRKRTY

p52 = target: T1, p52 (Homo sapiens, UniProt Q00653); test: DSE-FRET p52–DNA binding inhibition; format: biochemical; parameters: p52 Retest % Inhibition Run2 / p52 Retest % Inhibition Avg. / Kinetic assay p52 Inhibition % ΔRFU(60 min-0 min) / p52 HTS % Inhibition / p52 Retest % Inhibition Run1: dose or concentration left out as unconfirmed
T1 sequence (Q00653 1-454 limits assumed): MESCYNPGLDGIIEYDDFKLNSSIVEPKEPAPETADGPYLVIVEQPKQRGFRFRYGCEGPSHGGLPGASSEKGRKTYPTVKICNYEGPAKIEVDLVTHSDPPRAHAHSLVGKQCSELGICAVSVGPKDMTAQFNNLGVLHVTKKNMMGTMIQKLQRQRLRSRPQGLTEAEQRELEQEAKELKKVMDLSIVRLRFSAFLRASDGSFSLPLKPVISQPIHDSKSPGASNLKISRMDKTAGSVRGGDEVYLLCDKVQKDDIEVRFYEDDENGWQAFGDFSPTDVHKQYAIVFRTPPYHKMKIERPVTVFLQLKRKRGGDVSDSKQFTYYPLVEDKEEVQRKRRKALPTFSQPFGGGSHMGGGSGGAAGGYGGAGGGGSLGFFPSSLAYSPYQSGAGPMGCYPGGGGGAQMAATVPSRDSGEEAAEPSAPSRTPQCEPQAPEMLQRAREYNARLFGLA

[1] = HTS, known drugs, 10 µM, read-out: RelA HTS % Inhibition @ 10 µM
[2] = HTS, known drugs, 10 µM, read-out: p52 HTS % Inhibition @ 10 µM
[3] = Retest average of Run1 and Run2
[4] = kinetic assay, ΔRFU 60 min-0 min
[5] = retest, Run1, 10 µM, read-out: RelA Retest % Inhibition @ 10 µM Run1
[6] = retest, Run2, 10 µM, read-out: RelA Retest % Inhibition @ 10 µM Run2
[7] = retest, average of Run1 and Run2, 10 µM, read-out: RelA Retest % Inhibition @ 10 µM Avg.
[8] = retest, Run1, 10 µM, read-out: p52 Retest % Inhibition @ 10 µM Run1
[9] = retest, Run2, 10 µM, read-out: p52 Retest % Inhibition @ 10 µM Run2
[10] = retest, average of Run1 and Run2, 10 µM, read-out: p52 Retest % Inhibition @ 10 µM Avg.

| Compound | Kinetic assay RelA % Inhibition ΔRFU(60 min-0 min) (RelA; kinetic assay, 60 min-0 min) [%] | Kinetic assay p52 % Inhibition ΔRFU(60 min-0 min) (p52; kinetic assay, 60 min-0 min) [%] | inhibition at 10 µM (RelA; [1]) [%] | inhibition at 10 µM (p52; [2]) [%] | inhibition at 10 µM (RelA; [5]) [%] | inhibition at 10 µM (RelA; [6]) [%] | inhibition at 10 µM (RelA; [7]) [%] | inhibition at 10 µM (p52; [8]) [%] | inhibition at 10 µM (p52; [9]) [%] | inhibition at 10 µM (p52; [10]) [%] | also measured |
| --- | --- | --- | --- | --- | --- | --- | --- | --- | --- | --- | --- |
| SN 38 | -0.814 | -2 |  |  |  |  |  |  |  |  |  |
| O=C(O[C@H]1C[C@H]2CC[C@@H](C1)[N+]21CCCC1)C(O)(c1ccccc1)c1ccccc1 [TROSPIUM CHLORIDE] |  |  | 108 | 116 |  |  |  |  |  |  |  |
| COc1ccc2[nH]cc(C3=CCNCC3)c2c1.COc1ccc2[nH]cc(C3=CCNCC3)c2c1.O=C(O)CCC(=O)O [RU 24969 hemisuccinate] | -19 | -22 |  |  |  |  |  |  |  |  |  |
| O=C(O)CSCC(=O)N1CCn2c3c(c4cc(C5CCCCC5)ccc42)CCCC31 (stereo not drawn) |  |  |  |  |  |  |  |  |  |  | RelA HTS % Inhibition (RelA; HTS, NPDepo hits): 35.7%; RelA Retest % Inhibition Run1 (RelA; Retest Run1): 22.2%; RelA Retest % Inhibition Run2 (RelA; Retest Run2): 23.7%; RelA Retest % Inhibition Avg. (RelA; [3]): 22.9%; Kinetic assay RelA Inhibition % ΔRFU(60 min-0 min) (RelA; [4]): -2.34%; p52 HTS % Inhibition (p52; HTS, NPDepo hits): 19.2%; p52 Retest % Inhibition Run1 (p52; Retest Run1): 18.8%; p52 Retest % Inhibition Run2 (p52; Retest Run2): 22.6%; p52 Retest % Inhibition Avg. (p52; [3]): 20.7%; Kinetic assay p52 Inhibition % ΔRFU(60 min-0 min) (p52; [4]): -3.52% |
| CCN(CC)CCCC(C)Nc1c2ccc(Cl)cc2nc2ccc(OC)cc12 (stereo not drawn) [QUINACRINE HYDROCHLORIDE] | -18 | -16 | 56.7 | 70.9 | 60.6 | 66.3 | 63.5 | 60.7 | 69.7 | 65.2 |  |
| O=c1cc[nH]c(=O)[nH]1 [URACIL] |  |  | 1.1 | 30.5 | 0.0644 | 0.634 | 0.349 | 0.245 | 0.9 | 0.6 | inhibition at 10 µM (RelA; kinetic assay, 60 min-0 min, 10 µM, read-out: Kinetic assay @ 10 µM RelA % Inhibition ΔRFU(60 min-0 min)): -1.11%; inhibition at 10 µM (p52; kinetic assay, 60 min-0 min, 10 µM, read-out: Kinetic assay @ 10 µM p52 % Inhibition ΔRFU(60 min-0 min)): -1% |
